Source: US11117860B2, “Phenyl urea derivatives as n-formyl peptide receptor modulators” (Allergan, Inc., priority 2016, dated 2021)

What was measured:
FPR2 = target: T1, FPR2 (Homo sapiens, UniProt P25090); assay: compound-induced calcium activity on FLIPR Tetra, CHO-Gα16 cells stably expressing FPR2; type: cell-based; parameters: FPR2 Ga16-CHO (% eff): unit not given here; settings: for EC50: tested at 0.61 to 10,000 nM, read-out: FPR2 Ga16-CHO EC50; for FPR2 Ga16-CHO (% eff): efficacy value in parentheses
T1 construct: expressed in transfected cells
T1 sequence (P25090 1-351): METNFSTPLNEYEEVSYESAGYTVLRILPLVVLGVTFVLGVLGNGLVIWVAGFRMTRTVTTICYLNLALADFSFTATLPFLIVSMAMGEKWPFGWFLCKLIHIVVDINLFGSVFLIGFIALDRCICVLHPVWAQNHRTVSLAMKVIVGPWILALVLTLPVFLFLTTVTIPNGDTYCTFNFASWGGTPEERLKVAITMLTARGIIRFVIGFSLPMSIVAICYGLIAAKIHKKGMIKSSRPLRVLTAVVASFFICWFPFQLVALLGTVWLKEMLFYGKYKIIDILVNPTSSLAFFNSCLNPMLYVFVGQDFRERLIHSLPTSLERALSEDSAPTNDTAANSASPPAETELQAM
Method: (§1) CHO-Gα16 cells stably expressing FPR1 or FPR2 were cultured in (Ham's F12 nutrient media, 10% fetal bovine serum, 1% PSA (penicillin, streptomycin, amphotericin B antiobiotic/antimycotic), 400 μg/ml geneticin and 50 μg/ml hygromycin). In general, the day before the experiment, 18,000 cells/well were plated in a 384-well clear bottom poly-D-lysine coated plate. The following day the screening compound-induced calcium activity was assayed on the FLIPR^Tetra. The drug plates were prepared in 384-well microplates using the EP3 and the MultiPROBE robotic liquid handling systems. Compounds were tested at concentrations ranging from 0.61 to 10,000 nM. Results are expressed as EC50 (nM) and efficacy values.

FPR1 = target: T2, FPR1 (Homo sapiens, UniProt P21462); assay: compound-induced calcium activity on FLIPR Tetra, CHO-Gα16 cells stably expressing FPR1; type: cell-based; settings: for EC50 / FPR1 Ga16-CHO (% eff): CHO-Gα16 cells stably expressing FPR1, calcium activity; for EC50: tested at 0.61 to 10,000 nM, read-out: FPR1 Ga16-CHO EC50; for FPR1 Ga16-CHO (% eff): efficacy value in parentheses; for Ratio FPR2:FPR1 (EC50): ratio of EC50 for agonizing FPR2 to EC50 for agonizing FPR1 (selectivity for FPR1)
T2 construct: expressed in transfected cells
T2 sequence (P21462 1-350): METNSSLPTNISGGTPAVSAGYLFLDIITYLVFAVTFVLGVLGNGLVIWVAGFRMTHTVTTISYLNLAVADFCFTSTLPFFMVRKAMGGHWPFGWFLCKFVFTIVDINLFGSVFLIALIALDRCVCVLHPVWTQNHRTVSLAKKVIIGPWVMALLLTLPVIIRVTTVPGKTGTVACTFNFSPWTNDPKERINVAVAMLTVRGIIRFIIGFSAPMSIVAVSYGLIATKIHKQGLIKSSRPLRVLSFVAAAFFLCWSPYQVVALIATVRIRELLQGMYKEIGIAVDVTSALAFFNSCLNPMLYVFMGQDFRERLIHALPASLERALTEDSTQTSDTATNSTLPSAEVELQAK
Method: as §1

## CC(C)CC(C(=O)O)C(C)NC(=O)Nc1ccc(Br)cc1 (single isomer, unassigned) [Compound 102, 2-(1-(3-(4-bromophenyl)ureido)ethyl)-4-methylpentanoic acid]
FPR2
  EC50: 1050 nM
FPR1
  EC50: 48 nM

## CC(C)CC(C(=O)O)C(C)NC(=O)Nc1ccc(Br)cc1 (single isomer, unassigned) [Compound 103, 2-(1-(3-(4-bromophenyl)ureido)ethyl)-4-methylpentanoic acid]
FPR2
  EC50: 41 nM
FPR1
  EC50: 0.52 nM

## CC(C)CC(C(=O)O)C(C)NC(=O)Nc1ccc(Br)cc1 (racemic) [Compound 102, 2-(1-(3-(4-bromophenyl)ureido)ethyl)-4-methylpentanoic acid]
FPR2
  FPR2 Ga16-CHO (% eff): 0.63
FPR1
  FPR1 Ga16-CHO (% eff): 92%
  Ratio FPR2:FPR1 (EC50): 22

## CC(C)CC(C(=O)O)C(C)NC(=O)Nc1ccc(Br)cc1 (racemic) [Compound 103, 2-(1-(3-(4-bromophenyl)ureido)ethyl)-4-methylpentanoic acid]
FPR2
  FPR2 Ga16-CHO (% eff): 1.04
FPR1
  FPR1 Ga16-CHO (% eff): 97%
  Ratio FPR2:FPR1 (EC50): 79

## CC(C)CC(C(=O)O)C(C)NC(=O)Nc1ccc(Br)cc1 (single isomer, unassigned) [Compound 106, 2-(1-(3-(4-bromophenyl)ureido)ethyl)-4-methylpentanoic acid]
FPR2
  FPR2 Ga16-CHO (% eff): 0.75
  EC50: 9940 nM
FPR1
  EC50: 98 nM
  FPR1 Ga16-CHO (% eff): 91%
  Ratio FPR2:FPR1 (EC50): 101

## CC(C)CC(C(=O)O)C(C)NC(=O)Nc1ccc(Br)cc1 (single isomer, unassigned) [Compound 105, 2-(1-(3-(4-bromophenyl)ureido)ethyl)-4-methylpentanoic acid]
FPR2
  FPR2 Ga16-CHO (% eff): 0.56
  EC50: 3240 nM
FPR1
  EC50: 13 nM
  FPR1 Ga16-CHO (% eff): 103%
  Ratio FPR2:FPR1 (EC50): 249

## CC(C)CC(C(=O)OC(C)(C)C)C(C)NC(=O)Nc1ccc(Br)cc1 (single isomer, unassigned) [Compound 101, tert-butyl 2-(1-(3-(4-bromophenyl)ureido)ethyl)-4-methylpentanoate]
FPR2
  FPR2 Ga16-CHO (% eff): 0.73
  EC50: ≥ 10000 nM
FPR1
  EC50: ≥ 10000 nM
  FPR1 Ga16-CHO (% eff): 66%
  Ratio FPR2:FPR1 (EC50): 1

## CC(C)CC(C(=O)O)C(C)NC(=O)Nc1ccc(Br)cc1 (single isomer, unassigned) [Compound 104, 2-(1-(3-(4-bromophenyl)ureido)ethyl)-4-methylpentanoic acid]
FPR2
  FPR2 Ga16-CHO (% eff): 0.89
  EC50: 855 nM
FPR1
  EC50: 51 nM
  FPR1 Ga16-CHO (% eff): 94%
  Ratio FPR2:FPR1 (EC50): 17

## CC(C)CC(C(=O)O)C(C)NC(=O)Nc1ccc(Br)cc1 (single isomer, unassigned) [Compound 107, 2-(1-(3-(4-bromophenyl)ureido)ethyl)-4-methylpentanoic acid]
FPR2
  FPR2 Ga16-CHO (% eff): 0.96
  EC50: 25 nM
FPR1
  EC50: 1.7 nM
  FPR1 Ga16-CHO (% eff): 93%
  Ratio FPR2:FPR1 (EC50): 15

## CC(C)CC(C(=O)OC(C)(C)C)C(C)NC(=O)Nc1ccc(Br)cc1 (single isomer, unassigned) [Compound 100, tert-butyl 2-(1-(3-(4-bromophenyl)ureido)ethyl)-4-methylpentanoate]
FPR2
  FPR2 Ga16-CHO (% eff): 0.75
  EC50: 3760 nM
FPR1
  EC50: 1420 nM
  FPR1 Ga16-CHO (% eff): 80%
  Ratio FPR2:FPR1 (EC50): 2.6
